Experiments:
beagles = experiment: Endoscopic scoring of aspirin-induced gastric irritation in beagles (scale 0 to 7), percent protection; type: in vivo; conditions: oral, with 975 mg aspirin (ASA), antacid about 15 mEq where present; endoscopy at two and four hours; versus Control A (ASA alone)
Procedure: (§1) The product obtained above was tested as follows: 10 beagles were fasted overnight. At zero time, the stomach of each animal was endoscopically examined to assure a normal mucosa. Encapsulated compositions containing about 15 mEq MgO in the freshly prepared MgO-CD complex and 975 mg aspirin (ASA) were administered orally and flushed with 50 ml water.
At two and four hours after administration of the encapsulated composition, the stomachs of the animals were endoscopically reexamined for gastric irritation. Irritation was measured according to a scale of 0 to 7, wherein zero was the condition of the mucosa for a normal stomach and a value of 7 represents massive hemorrhagic damage.
Three control tests were also conducted. In Control A the animals were administered 975 mg ASA. In Control B the animals were administered 6.27 mg α-CD and 975 aspirin and in Control C the animals were administered 15 mEq MgO and 975 aspirin.
(§2) wherein n is the number of animals, % Protection is the difference in irritation scores (on the scale of 0 to 7) between Control A and the MgO-CD complex divided by the irritation score for Control A multiplied by 100, and pH is the pH of the antrum fluid sample. The complex of the present invention is seen to have provided a substantial increase in percent protection coupled with a marked increase in pH over the controls.

[1] = pH of gastric fluid sample obtained from the antrum after dosing; type: in vivo, beagles; conditions: oral, with 975 mg aspirin (ASA), antacid about 15 mEq where present
Procedure: as §1
In addition, a sample of gastric fluid was obtained from the antrum, and its general appearance noted and its pH measured.
as §2

Compound | % Protection (beagles) [%] | pH [1]
[OH][Al]([OH])[OH] [Al(OH)₃] | 10.8 ± 4.6 | 4.72 ± 0.85
CC(=O)Oc1ccccc1C(=O)O [Control A, aspirin] | 0 | 3.74 ± 0.44
O=C(O)O [MgCO₃] | 2.1 ± 6.1 | 3.33 ± 0.81
CaCO₃ | 3.0 ± 5 | 4.17 ± 0.90

From EP0583976A2, “Gastroprotective complexes with cyclodextrin” (Bristol-Myers Squibb Company, priority 1992, dated 1994)
